Test [1] has as its system Leishmania donovani axenic amastigote parasites. The test can be described thus: Leishmania donovani axenic amastigote proliferation assay (Cell TiterGlo luminescence, 2 day incubation). The format is cell-based. The settings on record: Leishmania donovani, read-out: L. donovani amastigotes EC50.
Test [2] relates to L. donovani HU3 strain in mouse peritoneal macrophages. The test can be described thus: Assay for proliferation of Leishmania parasites in infected mouse peritoneal macrophages (SybrGreen staining, high-content imaging, 5 days). The format is cell-based, Leishmania donovani. Conditions: Leishmania donovani, Peritoneal macrophage, L. donovani in mouse peritoneal macrophages, read-out: L. donovani Macrophage EC50.

Test [3] has as its system Trypanosoma brucei Lister 427 strain, bloodstream form. The test can be described thus: Assay for proliferation of kinetoplastid parasite Trypanosoma brucei (Cell Titer Glo, 48 hours). The format is cell-based. The settings on record: Trypanosoma brucei, T. brucei Lister 427 bloodstream form, read-out: T. brucei EC50. An outline of the steps:
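Bloodstream-form T. brucei Lister 427 in HMI-9 medium was exposed to compound (DMSO vehicle) for 48 hours at 37° C, 5% CO2. Parasite growth was read as ATP by CellTiter-Glo luminescence, with EC50 calculated from percent inhibition.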

Test [4] has as its system Trypanosoma cruzi amastigotes (Tulahuen strain expressing Lac-Z) cultured in 3T3 fibroblast cells. The test can be described thus: microbe, parasite or virus in culture. The format is cell-based. The settings on record: Trypanosoma cruzi, TULAHUEN, Fibroblast, T. cruzi amastigotes in 3T3 fibroblast cells, read-out: T cruzi EC50.
[5] abbreviates: axenic amastigotes, inhibition of proliferation.

Among the data in patent publication US20160045505A1, “COMPOUNDS AND COMPOSITIONS FOR THE TREATMENT OF PARASITIC DISEASES” (NOVARTIS AG, priority 2013, published 2016) are EC50 values, retold here.

Like-named read-outs stand apart in the source and are kept apart here.

The term EC50 denotes the midpoint of the concentration-response curve.

Turning to `Cc1nc(C)c(C(=O)Nc2cnc3nc(-c4cc(NC(=O)N5CCCC5)ccc4F)cn3c2)o1` [Compound 123], the EC50 was 423 nM in test [1] (setting [5]), more than 50000 nM in test [2] (inhibition of proliferation), 414 nM in test [3] (inhibition of proliferation) and more than 20000 nM in test [4] (inhibition of proliferation).

`CC(C)OC(=O)Nc1cnc2nc(-c3cc(NC(=O)c4cnco4)ccc3Cl)cn2c1` [Compound 52]: the EC50 was determined as 261 nM in test [1] (setting [5]), 2740 nM in test [2] (inhibition of proliferation), 571 nM in test [3] (inhibition of proliferation) and 1280 nM in test [4] (inhibition of proliferation).

As to `CC(C)OC(=O)N(C)c1cnc2nc(-c3cc(N(C)C(=O)c4ccc(Cl)o4)ccc3F)cn2c1` [Compound 551, isopropyl (2-(5-(5-chloro-N-methylfuran-2-carboxamido)-2-fluorophenyl)imidazo[1,2-a]pyrimidin-6-yl)(methyl)carbamate], the EC50 in test [1] (L. donovani axenic amastigotes) was 11000 nM; in test [2] it was 6940 nM; in test [3] it was 9320 nM; in test [4], 3280 nM.

With `Cc1nc(C)c(C(=O)Nc2ccc(F)c(-c3cn4cc(NC5=N[C@@H]6CCC[C@H]6O5)cnc4n3)c2)o1` [Compound 511], the EC50 in test [1] (L. donovani axenic amastigotes) is 1550 nM; in test [2], 2280 nM; in test [3] it was 590 nM; in test [4], 3680 nM.

Take `CC(C)OC(=O)Nc1cnc2nc(-c3cc(NC(=O)N4CCC5(C4)CC5(F)F)ccc3Cl)cn2c1` (stereo not drawn) [Compound 261]: the concentration giving a half-maximal response (EC50) in test [1] (setting [5]) amounted to 4320 nM; in test [2] (inhibition of proliferation), 7030 nM; in test [3] (inhibition of proliferation), 1220 nM; in test [4] (inhibition of proliferation), 1900 nM.

`CC(C)OC(=O)Nc1cnc2nc(-c3cc(NC(=O)N(C)CC(F)(F)F)ccc3F)cn2c1` [Compound 222]: the EC50 came out at 109 nM in test [1] (setting [5]), 424 nM in test [2] (inhibition of proliferation), 67 nM in test [3] (inhibition of proliferation) and 419 nM in test [4] (inhibition of proliferation).

Take `CC(C)OC(=O)Nc1cnc2nc(-c3cc(NC(=O)C(C)N)ccc3F)cn2c1` (stereo not drawn) [Compound 87]: the EC50 was more than 25000 nM in test [1] (setting [5]), more than 43700 nM in test [2] (inhibition of proliferation), more than 50000 nM in test [3] (inhibition of proliferation) and more than 20000 nM in test [4] (inhibition of proliferation).

As to `Cc1nc(C)c(C(=O)Nc2ccc(F)c(-c3cn4cc(NC(=O)[C@](C)(O)C(F)(F)F)cnc4n3)c2)o1` [Compound 163], the EC50 in test [1] (setting [5]) is 830 nM; in test [2] (inhibition of proliferation) it was 4450 nM; in test [3] (inhibition of proliferation), 399 nM; in test [4] (inhibition of proliferation), 10900 nM.

Take `CC(C)OC(=O)Nc1cnc2nc(-c3cc(NC(=O)NC4CCC4)ccc3Cl)cn2c1` [Compound 269]: the EC50 in test [1] (setting [5]) came to 9590 nM; in test [2] (inhibition of proliferation), 15100 nM; in test [3] (inhibition of proliferation), 3570 nM; in test [4] (inhibition of proliferation) it was 4160 nM.

Take `Cc1nc(C)c(C(=O)Nc2ccc(F)c(-c3cn4cc(NC5=NCC(C(F)(F)F)O5)cnc4n3)c2)o1` (stereo not drawn) [Compound 508]: the EC50 in test [1] (L. donovani axenic amastigotes) worked out at 1710 nM; in test [2], 8240 nM; in test [3], 4360 nM; in test [4], 11500 nM.

On to `Cc1nc(C)c(C(=O)Nc2ccc(F)c(-c3cn4cc(NC5=NCC(C)O5)cnc4n3)c2)o1` (stereo not drawn) [Compound 504], for which the EC50 came out at 2970 nM in test [1] (L. donovani axenic amastigotes), 5510 nM in test [2], 976 nM in test [3] and 10700 nM in test [4].

Take `CC1(C(=O)Nc2cnc3nc(-c4cc(NC(=O)N5CCCC5)ccc4F)cn3c2)CCC1` [Compound 145]: the EC50 in test [1] (setting [5]) was determined as 223 nM; in test [2] (inhibition of proliferation) it was 464 nM; in test [3] (inhibition of proliferation), 45 nM; in test [4] (inhibition of proliferation), 1730 nM.

In the case of `CNCCc1ccc(-c2cnc3nc(-c4cc(NC(=O)c5oc(C)nc5C)ccc4F)cn3c2)cc1` [Compound 451], the half-maximal effective concentration (EC50) in test [1] (L. donovani axenic amastigotes) came out at 6470 nM; in test [2], 1930 nM; in test [3], 968 nM; in test [4], 1950 nM.

Take `Cc1nc(C)c(C(=O)Nc2ccc(F)c(-c3cn4cc(OC(C)C)cnc4n3)c2)o1` [Compound 608, N-(4-fluoro-3-(6-isopropoxyimidazo[1,2-a]pyrimidin-2-yl)phenyl)-2,4-dimethyloxazole-5-carboxamide]: the EC50 in test [1] (L. donovani axenic amastigotes) was found to be 127 nM; in test [2] it was 456 nM; in test [3], 159 nM; in test [4], 132 nM.

On to `Cc1nc(C)c(C(=O)Nc2ccc(F)c(-c3cn4cc(NC(=O)C5(C#N)CC5)cnc4n3)c2)o1` [Compound 153], for which the EC50 in test [1] (setting [5]) was 348 nM; in test [2] (inhibition of proliferation) it was 901 nM; in test [3] (inhibition of proliferation), 135 nM; in test [4] (inhibition of proliferation), 3400 nM.

Consider `COCN(C(=O)OC(C)C)c1cnc2nc(-c3cc(NC(=O)c4oc(C)nc4C)ccc3F)cn2c1` [Compound 554], for which the EC50 in test [1] (L. donovani axenic amastigotes) came out at 814 nM; in test [2], 1850 nM; in test [3], 664 nM; in test [4], 1510 nM.

In the case of `Cc1nc(C)c(C(=O)Nc2ccc(F)c(-c3cn4cc(-c5ccc(CCN(C)C)cc5)cnc4n3)c2)o1` [Compound 450], the EC50 in test [1] (L. donovani axenic amastigotes) stood at 4620 nM; in test [2], 2990 nM; in test [3], 499 nM; in test [4], 397 nM.

As for `CC(C)Nc1cnc2nc(-c3cc(NC(=O)N4CC(F)(F)C4)ccc3F)cn2c1` [Compound 460, 3,3-difluoro-N-(4-fluoro-3-(6-(isopropylamino)imidazo[1,2-a]pyrimidin-2-yl)phenyl)azetidine-1-carboxamide], the EC50 amounted to 241 nM in test [1] (L. donovani axenic amastigotes), 208 nM in test [2], 164 nM in test [3] and 182 nM in test [4].

With `Cc1nc(C)c(C(=O)Nc2ccc(F)c(-c3cn4cc(C5=CCCN(C)C5)cnc4n3)c2)o1` [Compound 375], the EC50 stood at 4300 nM in test [1] (L. donovani axenic amastigotes), 499 nM in test [2], 135 nM in test [3] and 303 nM in test [4].

On to `O=C(Nc1cnc2nc(-c3cc(NC(=O)N4CCCC4)ccc3F)cn2c1)C1CCCCO1` (stereo not drawn) [Compound 129], for which the 50% effective concentration (EC50) in test [1] (setting [5]) worked out at 435 nM; in test [2] (inhibition of proliferation) it was 1260 nM; in test [3] (inhibition of proliferation) it was 123 nM; in test [4] (inhibition of proliferation) it was 1340 nM.

On to `CCC(C)C(=O)Nc1ccc(F)c(-c2cn3cc(NC(=O)OC(C)C)cnc3n2)c1` (stereo not drawn) [Compound 104], for which the EC50 in test [1] (setting [5]) was 2390 nM; in test [2] (inhibition of proliferation) it was more than 50000 nM; in test [3] (inhibition of proliferation), 1210 nM; in test [4] (inhibition of proliferation), 1340 nM.

Consider `CC(C)OC(=O)Nc1ccc(F)c(-c2cn3cc(C(C)C)cnc3n2)c1` [Compound 414], for which the EC50 stood at 217 nM in test [1] (L. donovani axenic amastigotes), 1160 nM in test [2], 131 nM in test [3] and 115 nM in test [4].

For the compound `Cc1nc(C)c(C(=O)Nc2ccc(F)c(-c3cn4cc(NC(=O)[C@@H]5CCCC[C@@H]5N)cnc4n3)c2)o1` [Compound 168], the EC50 was 20300 nM in test [1] (setting [5]), 24400 nM in test [2] (inhibition of proliferation), 4370 nM in test [3] (inhibition of proliferation) and more than 18400 nM in test [4] (inhibition of proliferation).

Consider `CN(C)c1cnc2nc(-c3cc(NC(=O)N4CCC4)ccc3F)cn2c1` [Compound 469], for which the EC50 came out at 143 nM in test [1] (L. donovani axenic amastigotes), 230 nM in test [2], 55 nM in test [3] and 146 nM in test [4].

For the compound `CC(C)Nc1cnc2nc(-c3cc(NC(=O)N4CCCC4)ccc3F)cn2c1` [Compound 476], the EC50 in test [1] (L. donovani axenic amastigotes) is 153 nM; in test [2], 358 nM; in test [3] it was 42 nM; in test [4], 152 nM.

In the case of `CC(C)OC(=O)Nc1cnc2nc(-c3cc(Nc4ncccc4C(F)(F)F)ccc3F)cn2c1` [Compound 485], the EC50 was more than 25000 nM in test [1] (L. donovani axenic amastigotes), 11500 nM in test [2], more than 50000 nM in test [3] and 1970 nM in test [4].

Regarding `Cc1nc(C)c(C(=O)Nc2ccc(F)c(-c3cn4cc(C(F)F)cnc4n3)c2)o1` [Compound 208], the EC50 in test [1] (setting [5]) was determined as 134 nM; in test [2] (inhibition of proliferation) it was 445 nM; in test [3] (inhibition of proliferation), 108 nM; in test [4] (inhibition of proliferation) it was 100 nM.

In the case of `Cc1nc(C)c(C(=O)Nc2ccc(F)c(-c3cn4cc(NC(=O)C5CCCOC5)cnc4n3)c2)o1` (stereo not drawn) [Compound 154], the EC50 in test [1] (setting [5]) was determined as 997 nM; in test [2] (inhibition of proliferation), 2530 nM; in test [3] (inhibition of proliferation), 1480 nM; in test [4] (inhibition of proliferation), 6180 nM.

Regarding `Cc1cccnc1-c1cnc2nc(-c3cc(N)ccc3F)cn2c1` [Compound 594, 4-fluoro-3-(6-(3-methylpyridin-2-yl)imidazo[1,2-a]pyrimidin-2-yl)aniline], the EC50 was more than 25000 nM in test [1] (L. donovani axenic amastigotes), more than 32800 nM in test [2], more than 50000 nM in test [3] and more than 19900 nM in test [4].

Take `Cc1ncc(C(=O)Nc2ccc(Cl)c(-c3cn4cc(NC(=O)OC(C)C)cnc4n3)c2)o1` [Compound 47]: the EC50 amounted to 77 nM in test [1] (setting [5]), 220 nM in test [2] (inhibition of proliferation), 128 nM in test [3] (inhibition of proliferation) and 442 nM in test [4] (inhibition of proliferation).

As for `CC(C)OC(=O)Nc1cnc2nc(-c3cc(NC(=O)C(C)C)ccc3F)cn2c1` [Compound 105], the EC50 in test [1] (setting [5]) is 2170 nM; in test [2] (inhibition of proliferation), more than 50000 nM; in test [3] (inhibition of proliferation) it was 1480 nM; in test [4] (inhibition of proliferation), 1460 nM.

As for `CC(=O)Nc1ncc(C(=O)Nc2ccc(Cl)c(-c3cn4cc(NC(=O)OC(C)C)cnc4n3)c2)s1` [Compound 50], the EC50 in test [1] (setting [5]) was more than 25000 nM; in test [2] (inhibition of proliferation), more than 50000 nM; in test [3] (inhibition of proliferation) it was more than 50000 nM; in test [4] (inhibition of proliferation), more than 20000 nM.

`O=C1CCC(C(=O)Nc2ccc(F)c(-c3cn4cc(C5CC5)cnc4n3)c2)C1` (stereo not drawn) [Compound 599]: the EC50 in test [1] (L. donovani axenic amastigotes) is 2690 nM; in test [2], 639 nM; in test [3], 3300 nM; in test [4], 3930 nM.
